# Columns and labels:
# [1] = cited from earlier work
# [2] = value used for minimum release rate; cited from earlier work
# Xen 29 [3] = test: Minimum inhibitory concentration against Xen 29; assay type: cell-based, S. aureus; conditions: Staphylococcus aureus, 29, read-out: Minimum inhibitory concentration of rifampin against Xen 29
# [4] = human hip, assumed; cited from earlier work
# [5] = UV-Vis spectra of vancomycin eluted from unirradiated and irradiated blend; assay type: physicochemical; conditions: blended in the polymeric material, with and without terminal irradiation
# Procedure: Vancomycin HCl-blended UHMWPE was prepared with a concentration of 6 wt % vancomycin as described in Example 3. Consolidation was performed at 170° C. for 10 min at 20 MPa. The platens were then cooled down with air down to approximately 162° C. and then cooled down with water starting at approximately 156° C. down to about room temperature to obtain an approximately 3 mm-thick puck (approximately 10.5 mm diameter). Consolidated vancomycin-blended samples (VPE) were then either used as is or gamma irradiated at 100 kGy. UHMWPE without additives was used as control. In vitro elution of samples in all three groups was conducted in phosphate buffered saline (PBS) as described in Example 3. After no detectable vancomycin could be measured through UV-Vis, the presence of vancomycin grafted onto the surface of the polymer was determined by labeling with an anti-vancomycin antibody.
# Xen 29 [6] = conditions: cited from earlier work
structure (smiles),measurement,setting,value
Cc1nnc(SCC2=C(C(=O)O)N3C(=O)[C@@H](NC(=O)Cn4cnnn4)[C@H]3SC2)s1 [cefazolin],share of intravenous antibiotic that penetrates bone,[1],7-15%
CO/N=C(\C(=O)N[C@@H]1C(=O)N2C(C(=O)O)=C(CSc3nc(=O)c(=O)[nH]n3C)CS[C@H]12)c1csc(N)n1 [ceftriaxone],share of intravenous antibiotic that penetrates bone,[1],5-19%
CO[C@H]1/C=C/O[C@@]2(C)Oc3c(C)c(O)c4c(O)c(c(/C=N/N5CCN(C)CC5)c(O)c4c3C2=O)NC(=O)/C(C)=C\C=C\[C@H](C)[C@H](O)[C@@H](C)[C@@H](O)[C@@H](C)[C@H](OC(C)=O)[C@@H]1C [rifampin],minimum inhibitory concentration,[2],1 µg/mL
same,MIC,Xen 29 [3],0.01 µg/mL
CN[C@H](CC(C)C)C(=O)N[C@H]1C(=O)N[C@@H](CC(N)=O)C(=O)N[C@H]2C(=O)N[C@H]3C(=O)N[C@H](C(=O)N[C@H](C(=O)O)c4cc(O)cc(O)c4-c4cc3ccc4O)[C@H](O)c3ccc(c(Cl)c3)Oc3cc2cc(c3O[C@@H]2O[C@H](CO)[C@@H](O)[C@H](O)[C@H]2O[C@H]2C[C@](C)(N)[C@H](O)[C@H](C)O2)Oc2ccc(cc2Cl)[C@H]1O [vancomycin],share of intravenous antibiotic that penetrates bone,[1],5-20%
same,approximate clearance half-life from the joint space,[4],~3.5 h
same,effect of irradiation on vancomycin (UV absorbance of eluted vancomycin),[5],not affected by irradiation
same,Minimum inhibitory concentration of vancomycin against Xen 29,Xen 29 [6],1 µg/mL
same,minimum inhibitory concentration,[2],2 µg/mL

# Reference: patent publication US12350403B2, “Methods of making therapeutic polymeric material” (priority 2015, dated 2025)
